{"source": "patent US7923231B2", "about": "“Production of glucuronic acid using myo-inositol oxygenase from cryptococcus neoformans” (Cargill, Incorporated, priority 2004, dated 2011)", "key": {"[1]": {"details": "cited from earlier work"}, "[2]": {"tested_on": "myo-inositol oxygenase (MIO)", "assay": "Conversion rate additives in the myo-inositol conversion mixture", "type": "biochemical, Cryptococcus neoformans", "details": "additive in conversion mixture", "text": "Although the conversion rate increased, the final conversion percentages were similar to conversion mixtures without those same additives."}, "[3]": {"tested_on": "myo-inositol oxygenase (MIO)", "assay": "Small-scale biocatalytic conversion: buffer concentration and ionic strength", "type": "biochemical, Cryptococcus neoformans", "details": "for increase in initial reaction rate and final concentration of D-glucuronic acid produced: salts concentrations higher than 0.25 M", "protocol": "A small-scale protocol was used to develop the biocatalytic production of glucuronic acid from myo-inositol. Cells containing myo-inositol oxygenase were grown as described before, harvested by centrifugation and washed in 50 mM MOPS buffer at pH 7.0. The cell paste was kept frozen until use. To prepare the enzyme for the reaction, the cells were resuspended in 2 volumes of the same buffer at pH 6.5 and broken using either a French press or a MICROFLUIDICS® homogenizer (MICROFLUIDIZER® cell disruptor M-110L, available from Microfluidics, MA). Breakage was accomplished by 2 to 3 passes at 20,000 psi, and was followed visually using a microscope. The cell extract was centrifuged for 20 minutes at 15,000 rpm to remove the cell debris. Total soluble protein was measured in the clear supernatant, as described in Example 1. The cell extract was diluted to a protein concentration of 75 mg/ml and the enzyme was incubated for 1 hr on ice in the presence of ascorbic acid and ferrous ammonium sulfate at concentrations of 5 and 2 mM, respectively.\nThe enzyme reaction was carried out in 0.7 L reactors with temperature, pH, agitation and dissolved oxygen control. A solution of 50 g/L myo-inositol in 50 mM MOPS at pH 6.5 (200 mL) was used in the standard protocol. Temperature was controlled at 15° C. Pure air, air enriched with oxygen or pure oxygen were used to supply enough oxygen for the reaction to proceed. The air was supplied either in the headspace of the reactor or was sparged into the liquid. The formation of glucuronic acid results in a decrease in the pH of the broth. To keep the pH at the desired value, pH 6.5, the acid was neutralized with 4 N NaOH. The enzyme solution was added to reach an initial concentration of 2 g soluble protein/L. The reaction proceeded very fast immediately after the enzyme addition and the rate decayed over time. Different experiments varied the number and/or amount of enzyme additions. The progress of the reaction was followed by HPLC analysis.\nEffect of buffer concentration and ionic strength. The effect of the buffer concentration was tested with the described protocol of Example 6, and included testing without any buffer, using 5 mM MOPS, and using 50 mM MOPS. No difference in the performance of the reaction was observed, either in reaction rate or in extent of reaction, as long as good pH control was provided.\nAdditionally, further studies on increasing the ionic strength of the broth by adding salts, using either NaCl or sodium glucuronate at 0.25 M and 0.5 M, or mixes of both, indicated better enzyme performance at higher ionic strength."}, "[4]": {"assay": "Freeze-thaw and frozen storage stability of MIO activity", "details": "continuous storage at −80° C. for several months", "text": "A lysed cell mixture may be added either purified or unpurified into a mixture for MIO activation. If desired, samples containing MIO may be stored prior to use. Samples containing MIO may be stored at low temperatures for short periods of time or may be frozen for longer periods of storage without significant MIO degradation. […] Additional freeze-thaw cycles, however, did reduce MIO activity."}}, "note": "Like-named read-outs stand apart in the source and are kept apart here."}
{"molecule": "N[C@@H](CS)C(=O)O", "note": "[Cysteine]", "values": [{"measurement": "reduction potential", "setting": "[1]; pH 7", "result": "−230", "unit": "mV"}]}
{"molecule": "Bovine serum albumin: protein tested as conversion rate additive", "values": [{"measurement": "effect on MIO specific activity and conversion rate", "setting": "[2]", "result": "minimal effect"}]}
{"molecule": "[Cl-].[Na+]", "note": "[NaCl]", "values": [{"measurement": "increase in initial reaction rate and final concentration of D-glucuronic acid produced", "setting": "[3]", "result": "~50", "unit": "%"}]}
{"molecule": "O=S(=O)(O)CCCN1CCOCC1", "note": "[MOPS, 3-[N-morpholino]propanesulfonic acid]", "values": [{"measurement": "effect of buffer concentration on reaction rate and extent of reaction", "setting": "[3]; no buffer, 5 mM and 50 mM MOPS, with good pH control", "result": "No difference"}]}
{"molecule": "catalase", "values": [{"measurement": "improvement in conversion", "setting": "[2]; after 6.5 hours", "result": 18, "unit": "%"}]}
{"molecule": "Superoxide dismutase", "values": [{"measurement": "effect on MIO specific activity and conversion rate", "setting": "[2]", "result": "slightly increase"}]}
{"molecule": "O=C1O[C@H]([C@@H](O)CO)C(O)=C1O", "note": "[L-ascorbic acid]", "values": [{"measurement": "reduction potential", "setting": "[1]; 25° C.", "result": "+54 mV"}, {"measurement": "reduction potential", "setting": "[1]; 30° C.", "result": "+51.2 mV"}]}
{"molecule": "O=C[C@H](O)[C@@H](O)[C@H](O)[C@H](O)C(=O)[O-].[Na+]", "note": "[sodium glucuronate, reference compound]", "values": [{"measurement": "inhibition of the reaction", "setting": "[3]; high concentrations", "result": "Some inhibition"}, {"measurement": "increase in initial reaction rate and final concentration of D-glucuronic acid produced", "setting": "[3]", "result": "~50", "unit": "%"}]}
{"molecule": "MIO: Fe(II) containing enzyme that converts myo-inositol to D-glucuronic acid using oxygen (protein, UniProt Q9UGB7 1-285, looked up) Inositol oxygenase: MKVTVGPDPSLVYRPDVDPEVAKDKASFRNYTSGPLLDRVFTTYKLMHTHQTVDFVRSKHAQFGGFSYKKMTVMEAVDLLDGLVDESDPDVDFPNSFHAFQTAEGIRKAHPDKDWFHLVGLLHDLGKVLALFGEPQWAVVGDTFPVGCRPQASVVFCDSTFQDNPDLQDPRYSTELGMYQPHCGLDRVLMSWGHDEYMYQVMKFNKFSLPPEAFYMIRFHSFYPWHTGRDYQQLCSQQDLAMLPWVREFNKFDLYTKCPDLPDVDKLRPYYQGLIDKYCPGILSW", "values": [{"measurement": "MIO activity on long-term storage", "setting": "[4]", "result": "remained stable"}]}
